Measurements reported in patent US9675664B2, “Compositions, formulations and methods of treating preeclampsia-type disorders of pregnancy” (Women & Infants' Hospital of Rhode Island, priority 2009, dated 2017).

Key:
[1] = tested on: endothelial cells (EC) and trophoblasts (HTR) crosstalk; test: In vitro endothelial cell-trophoblast co-culture tube (vacuole) formation assay on matrigel with pregnancy serum; format: cell-based, human; conditions: for rescue of mild PE serum induced disrupted EC-HTR8 crosstalk (tube assay): mild preeclampsia serum (mPE), TTR preincubated at 0.1, 1.0, 10 μg/ml of serum; for rescue of severe PE serum induced disrupted EC-HTR8 crosstalk (tube assay): severe preeclampsia serum (sPE), TTR preincubated at 0.1, 1.0, 10 microgram/ml of serum
From the text: The in vitro assay described in this example is based on the premise that during normal pregnancy, fetal derived trophoblasts called the “invasive cytotrophoblasts” invade the maternal decidua and the endothelial cell lined spiral arteries. This phenomenon can be restructured using serum from pregnancy as physiological milieu and culturing human umbilical vein endothelial cells and trophoblasts on basement membrane such as matrigel. […] For additional information see U.S. Provisional Patent Application No. 61/063,491 filed Feb. 4, 2008 and/or Kalkunte, In Vitro and In Vivo Evidence for Lack of Vascular Remodeling by Third Trimester Trophoblasts, Placenta 29: 871-78 (2008).
Recombinantly produced TTR (detected by SDS-PAGE electrophoresis and purity 96%) was obtained from AbD Serotec, Raleigh, N.C. 27604, USA. Recombinant TTR obtained in lyophilized form was reconstituted with sterile phosphate-saline buffer to obtain a final concentration of 1 mg/ml and maintained at >pH 7.0. The solutions were stored as aliquots frozen at −80° C. until use. Thirty minutes prior to experimentation, the aliquots of TTR were thawed, then mixed with serum and incubated at 37° C. for 30 minutes.
The in vitro method further includes incubating a co-culture of human endothelial cells and human trophoblast cells in the presence of serum or plasma obtained from a pregnant person for a period of time sufficient to permit vacuolization (also referred to as “capillary formation” and “tube formation” in FIGS. 2-4), and after incubation determining whether substantial vacuolization in the co-culture has occurred by quantification as described in Example 3.
During pregnancy, angiogenesis is characterized by spiral artery remodeling for which trophoblast invasion into these maternal blood vessels is a prerequisite. The data of FIG. 2 show an in vitro model of interaction of trophoblasts and endothelial cells that mimics spiral artery remodeling. Specifically, 2.5×10^4 endothelial cells labeled red and 2.5×10^4 trophoblasts, labeled green, were co-cultured on matrigel coated plates and stimulated with either NPS (normal pregnancy serum) or severe PES (Preeclampsia Serum) as described above. In the absence of exogenous TTR, serum from severe (FIG. 2 Panel B #5 and C #9) preeclampsia patients blocks the “cross-talk” between endothelial-trophoblast cells, causing obvious differences in architecture as compared to the same cells stimulated under the same conditions with NPS serum (sample L1045; FIG. 2 Panel A, #1).
Briefly, 2.5×10^4 endothelial cells labeled red and 2.5×10^4 trophoblasts, each from different trimesters labeled green (FIG. 2), were co-cultured on matrigel coated plates and stimulated with either NPS or mild PES as described above. […] The number of vacuoles (or tubes) formed per sample were counted and represented in the graph (FIG. 4, mPE with and without TTR). […] Statistical significance of experimental differences was assessed using Student's paired t-test. […]
The in vitro studies conducted in Example 2 were quantified by counting the number of tube like structures termed as “vacuole” under fluorescence microscope (Nikon Eclipse TS 100 coupled with CCD camera) in four different fields at 4× magnification. […]

Pregnant IL-10−/− mice = test: In vivo rescue of PE serum induced preeclampsia-like symptoms in pregnant IL-10-/- mice
Procedure: Recombinantly produced TTR (detected by SDS-PAGE electrophoresis and purity 96%) was obtained from AbD Serotec, Raleigh, N.C. 27604, USA. Recombinant TTR obtained in lyophilized form was reconstituted with sterile phosphate-saline buffer to obtain a final concentration of 1 mg/ml and maintained at >pH 7.0. The solutions were stored as aliquots and frozen at −80° C. until use. Thirty minutes prior to experimentation, the aliquots of TTR were thawed, then mixed with 100 μl of PE serum samples. Pregnant IL-10^−/− mice (C57BL/6, Jackson Labs, USA) were then injected intraperitoneally on gestational day (g.d.) 10 at a TTR dose of 20 microgram/mouse. The gestational period in mice is 20 days. Similarly, 100 μl PE serum or normal pregnancy serum was administered to different set of animals as control. On g.d.16/17, urine and serum samples were collected from each mouse, and blood pressure measurements were taken. Blood pressure was taken by an established tail-cuff method which utilizes a programmed sphygmomanometer. The animals adapted for 5 min using a warming test chamber (IITC Life Science Inc, Woodland Hills, Calif.) at controlled temperature (35° C.). The measurements were carried out on day 17 of pregnancy using DigiMed blood pressure analyzer, (MicroMed, Louisville, Ky., 40222-4683). Each measurement of blood pressure is an average of three readings at 1 min intervals from a number of animals (˜3-5 each). Systolic blood pressure was compared among non-pregnant and pregnant mice. All animals were age matched. Data was analyzed using Digi-Med® System Integrator™ Model 400 (DMSI-400).
Total urinary albumen was measures using Albumin (mouse) ELISA kit (ALPCO Diagnostics, Salem, N.H.) and urinary creatinine was measured using Metra Creatinine Kit (Quidel Corporation, San Diego, Calif.). Protinuria as represented as a ration of urinary albumin to creatinine (expressed as μg/mg). (Baseline values seen in mice range from 100-400 μg/mg.)
On g.d. 17 the mice were euthanized, the uterine horns were extracted, photographed and pregnancy outcomes were recorded. […] 10 in IL10^−/− mice. The effects in response to only one administration of serum (100 μl) were evaluated on g.d. 17.

[2] = endogenous TTR; cited from earlier work
[3] = sPE serum 100 μl i.p. on g.d. 10 with co-administered TTR 20 microgram/mouse, evaluated g.d. 17

Substance	rescue of mild PE serum induced disrupted EC-HTR8 crosstalk (tube assay) [1]	rescue of mild PE serum induced disrupted EC-HTR8 crosstalk (tube assay) ([1]; listed as Recombinant TTR)	effect on NPS mediated tube formation ([1]; normal pregnancy serum (NPS), TTR 0.1, 1.0, 10 microgram/ml of serum)	rescue of severe PE serum induced disrupted EC-HTR8 crosstalk (tube assay) [1]	rescue of severe PE serum induced disrupted EC-HTR8 crosstalk (tube assay) ([1]; listed as Recombinant TTR)	TTR levels in mouse serum (SELDI-TOF relative intensity) (Pregnant IL-10−/− mice; reduction induced by severe preeclampsia serum, FIG. 6)	intrauterine growth restriction (fetal weight) (Pregnant IL-10−/− mice; [3])	systolic blood pressure (hypertension) (Pregnant IL-10−/− mice; [3])	proteinuria (urinary albumin to creatinine ratio) (Pregnant IL-10−/− mice; sPE serum 100 μl i.p. on g.d. 10 with co-administered TTR 20 microgram/mouse, urine g.d. 16/17)	half life [2]
transthyretin [recombinant TTR]	substantially rescues	rescues mPE serum induced disruption	no significant effect	substantially rescues	rescues sPE serum induced disruption	rescued	rescues sPE serum induced anomalies	rescues sPE serum induced anomalies	rescues sPE serum induced anomalies	–
transthyretin [endogenous TTR]	–	–	–	–	–	–	–	–	–	approximately 2 days
